Laboratory results: patent publication US3965109A, “Certain aryl amino pyridines” (priority 1971, dated 1976)

How the values were obtained:
[1] = system: Puccinia recondita (wheat); assay: Fungicidal test against foliar disease A (foliage spray plus soil drench); format: in vivo; settings: 100 ppm spray and drench; 10 days
[2] = system: Plasmopara viticola (vine); assay: Fungicidal test against foliar disease C (foliage spray plus soil drench); format: in vivo; settings: 100 ppm spray and drench; 10 days
Uncinula necator (vine) = assay: Fungicidal test against foliar disease D (foliage spray plus soil drench); format: in vivo; settings: 100 ppm spray and drench; 10 days
[3] = system: Piricularia oryzae (rice); format: in vivo; settings: 100 ppm spray and drench; 7 days
[4] = system: Tetranychus telarius (red spider mites, adults); assay: Pest toxicity test; format: in vivo; settings: 0.1% by weight; French bean; 3 days
[5] = system: Tetranychus telarius (red spider mites, eggs); assay: Pest toxicity test; format: in vivo; settings: 0.1% by weight; French bean; 3 days
Aphis fabae = assay: Pest toxicity test; format: in vivo; settings: 0.1% by weight; broad bean; 2 days
Megoura viceae = assay: Pest toxicity test; format: in vivo; settings: 0.1% by weight; broad bean; 2 days
[6] = system: Aedes aegypti (mosquito larvae); assay: Pest toxicity test; format: in vivo; settings: 0.01% by weight; water; 1 day
[7] = system: Aedes aegypti (mosquito adults); assay: Pest toxicity test; format: in vivo; settings: 0.01% by weight; plywood; 1 day
[8] = system: Musca domestica (houseflies); assay: Pest toxicity test, contact test; format: in vivo; settings: 0.1% by weight; milk/sugar; 2 days; flies sprayed directly
[9] = system: Pieris brassicae (cabbage white caterpillars); assay: Pest toxicity test; format: in vivo; settings: 0.1% by weight, 2 days
[10] = system: Plutella maculipennis (diamond back moth larvae); assay: Pest toxicity test; format: in vivo
[11] = system: Phaedon cochleariae (mustard beetles); assay: Pest toxicity test; format: in vivo
[12] = system: Agriolimax reticulatus (slugs); assay: Molluscicidal activity test; format: in vivo, Agriolimax reticulatus (Mull); settings: pellet with 4% by weight; 6 days; 10°C
Summary of the method: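 Slugs were starved for 24 hours, then housed two per dish, in duplicate, under high humidity at 10°C. They fed on pellets dried to contain 4% w/w of test compound. Mortality was scored on day 6.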

Lettuce = assay: Herbicidal test, pre- and post-emergence; format: in vivo
Tomato = assay: Herbicidal test, pre- and post-emergence; format: in vivo
Wheat [13] = assay: Herbicidal test, pre- and post-emergence; format: in vivo
Maize = assay: Herbicidal test, pre- and post-emergence; format: in vivo
Sugar beet = assay: Further herbicidal test, various rates; format: in vivo; settings: scale 0 to 5 (complete kill)
Kale = assay: Further herbicidal test, various rates; format: in vivo; settings: scale 0 to 5 (complete kill)
Carrot = assay: Further herbicidal test, various rates; format: in vivo; settings: scale 0 to 5 (complete kill)
Pea = assay: Further herbicidal test, various rates; format: in vivo; settings: scale 0 to 5 (complete kill)
Onion = assay: Further herbicidal test, various rates; format: in vivo; settings: scale 0 to 5 (complete kill)
Barley [14] = assay: Further herbicidal test, various rates; format: in vivo; settings: scale 0 to 5 (complete kill)
Rice = assay: Further herbicidal test, various rates; format: in vivo; settings: scale 0 to 5 (complete kill)
Oat = assay: Further herbicidal test, various rates; format: in vivo; settings: scale 0 to 5 (complete kill)
Barley [15] = assay: Selective herbicidal activity; format: in vivo
Text: (§1) This Example illustrates the selective herbicidal activity of compounds No. 5 and 12 of Table 1. The compounds, formulated as in Example 5 were sprayed on to pots of soil previously sown with seeds of the plant species shown in Tables 13 and 14.
(§2) Table 14 gives the results for compound No. 12 of Table 1 The figures are assessments of damage to the plants 23 days after treatment, on a scale of 0 to 5 where 0 is no effect and 5 is complete kill

Wheat [16] = assay: Selective herbicidal activity; format: in vivo
Text: as §1, §2

broadleaved plants = assay: Selective herbicidal activity; format: in vivo; settings: Tables 13 and 14
Text: as §1, §2

Redshank = assay: Selective herbicidal activity; format: in vivo, Polygonum persicaria; settings: 2 kg/hectare; 23 days; scale 0 to 5 (complete kill)
Text: as §1
Redshank Polygonum persicaria

Mayweed = assay: Selective herbicidal activity; format: in vivo, Tripleurospermum maritimum ssp. inodorum; settings: 2 kg/hectare; 23 days; scale 0 to 5 (complete kill)
Text: as §1
Mayweed Tripleurospermum maritimum

Speedwell = assay: Selective herbicidal activity; format: in vivo, Veronica spp; settings: 2 kg/hectare; 23 days; scale 0 to 5 (complete kill)
Text: as §1

Knotgrass = assay: Selective herbicidal activity; format: in vivo, Polygonum aviculare; settings: 2 kg/hectare; 23 days; scale 0 to 5 (complete kill)
Text: as §1, §2
Knotgrass Polygonum aviculare

Corn Marigold = assay: Selective herbicidal activity; format: in vivo, Chrysanthemum segetum; settings: 2 kg/hectare; 23 days; scale 0 to 5 (complete kill)
Text: as §1, §2
Corn marigold Chrysanthemum segetum

[17] = system: larvae of the blowfly (Lucilia serrata); assay: Insecticidal test on blowfly larvae on treated filter paper; format: in vivo; settings: scale of 1 to 6; filter paper with horse serum
[18] = system: larvae of the tick Boophilus microplus; assay: Similar test on tick larvae on filter paper without horse serum; format: in vivo
[19] = 10 lb/acre (11.2 kg/ha), scale 0 (no effect) to 3 (complete kill)
[20] = 2 kg/hectare, 23 days, scale 0 to 5 (complete kill)
[21] = 0.1% by weight, mustard/paper, 2 days
[22] = 10 kg/ha, scale 0 to 3 (complete kill)

`O=[N+]([O-])c1c(F)c(F)c(Nc2c(Cl)c(F)nc(F)c2Cl)c(F)c1F` [Compound 12, 3,5-Dichloro-2,6-difluoro-4(4-nitro 2,3,5,6-tetrafluoroanilino) pyridine] was tested, and the “Amount of disease grading, disease A” value [1] was 2 (6 to 25), the “Amount of disease grading, disease C” value [2] was 3 (0 to 5) and the “Amount of disease grading, disease D” value (Uncinula necator (vine)) was 3 (0 to 5). The “Amount of disease grading, disease E” value [3] was 0 (61 to 100), the “Mortality grading (kill)” value [4] was 3 (3 represents over 90% kill) and the “Mortality grading (kill)” value [5] was 3 (3 represents over 90% kill). The “Mortality grading (kill)” value (Aphis fabae) was 3 (3 represents over 90% kill), the “Mortality grading (kill)” value (Megoura viceae) was 3 (3 represents over 90% kill) and the “Mortality grading (kill)” value [6] was 3 (3 represents over 90% kill). The “Mortality grading (kill)” value [7] was 0 (O represents less than 30% kill), the “Mortality grading (kill), contact test” value [8] was 2 (2 represents 60 - 90% kill) and the “Mortality grading (kill)” value [9] was 0 (O represents less than 30% kill). For the same compound, the “Mortality grading (kill)” value ([10]; in vivo) was 0 (key: O represents less than 30% kill; 1 represents 30 - 49% kill; 2 represents 60 - 90% kill; 3 represents over 90% kill; C indicates a chemosterilant effect.; A indicates an antifeeding effect.), the “Mortality grading (kill)” value ([11]; in vivo) was 0 (key: O represents less than 30% kill; 1 represents 30 - 49% kill; 2 represents 60 - 90% kill; 3 represents over 90% kill; C indicates a chemosterilant effect.; A indicates an antifeeding effect.) and the “% Kill of slugs” value [12] was 50%. For the same compound, the “Damage to plants, post-emergence” value (Lettuce; [19]) was 3, the “Damage to plants, pre-emergence” value (Lettuce; [19]) was 3 and the “Damage to plants, post-emergence” value (Tomato; [19]) was 3. For the same compound, the “Damage to plants, pre-emergence” value (Tomato; [19]) was 3, the “Damage to plants, post-emergence” value (Wheat [13]; [19]) was 0 and the “Damage to plants, pre-emergence” value (Wheat [13]; [19]) was 3. For the same compound, the “Damage to plants, post-emergence” value (Maize; [19]) was 1, the “Damage to plants, pre-emergence” value (Maize; [19]) was 3 and the “Damage to plants, post-emergence” value (Sugar beet; 5 lb/acre) was 5. For the same compound, the “Damage to plants, pre-emergence” value (Sugar beet; 5 lb/acre) was 4, the “Damage to plants, post-emergence” value (Kale; 5 lb/acre) was 5 and the “Damage to plants, pre-emergence” value (Kale; 5 lb/acre) was 4. The “Damage to plants, post-emergence” value (Carrot; 5 lb/acre) was 5, the “Damage to plants, pre-emergence” value (Carrot; 5 lb/acre) was 4 and the “Damage to plants, post-emergence” value (Pea; 5 lb/acre) was 1. For the same compound, the “Damage to plants, pre-emergence” value (Pea; 5 lb/acre) was 3, the “Damage to plants, post-emergence” value (Onion; 5 lb/acre) was 0 and the “Damage to plants, post-emergence” value (Barley [14]; 5 lb/acre) was 2. The “Damage to plants, post-emergence” value (Rice; 5 lb/acre) was 0, the “Damage to plants, post-emergence” value (Oat; 5 lb/acre) was 0 and the “Damage to plants, pre-emergence” value (Oat; 5 lb/acre) was 0. The Damage to plants (Barley [15]; [20]) was 1, the “damage to barley (in words)” value (Barley [15]; Tables 13 and 14) was “undamaged” and the Damage to plants (Wheat [16]; [20]) was 0. For the same compound, the “damage to wheat (in words)” value (Wheat [16]; Tables 13 and 14) was “undamaged”, the “damage to the broadleaved plants (in words)” value (broadleaved plants) was “caused damage to the broadleaved plants” and the Damage to plants (Redshank) was 5. For the same compound, the Damage to plants (Mayweed) was 5, the Damage to plants (Speedwell) was 0 and the Damage to plants (Knotgrass) was 4. For the same compound, the Damage to plants (Corn Marigold) was 3.5.

In the case of `O=[N+]([O-])c1ccc(Nc2c(F)c(F)nc(F)c2F)c(C(F)(F)F)c1` [Compound 28, 4-(4-Nitro-2-trifluoromethylanilino)-tetrafluoropyridine], the “Amount of disease grading, disease A (Table 4)” value [1] was 0 (61 to 100), the “Amount of disease grading, disease C (Table 4)” value [2] was 3 (0 to 5) and the “Amount of disease grading, disease D (Table 4)” value (Uncinula necator (vine)) was 3 (0 to 5). The “Mortality grading (kill)” value [4] was 3 (3 represents over 90% kill), the “Mortality grading (kill)” value [5] was 3 (3 represents over 90% kill) and the “Mortality grading (kill)” value (Aphis fabae) was 3 (3 represents over 90% kill). The “Mortality grading (kill)” value (Megoura viceae) was 3 (3 represents over 90% kill), the “Mortality grading (kill)” value [6] was 3 (3 represents over 90% kill) and the “Mortality grading (kill)” value [7] was 3 (3 represents over 90% kill). The “Mortality grading (kill), contact test” value [8] was 3 (3 represents over 90% kill), the “Mortality grading (kill)” value [9] was 3 (3 represents over 90% kill) and the “Mortality grading (kill)” value [10, 21] was 3 (3 represents over 90% kill). For the same compound, the “Mortality grading (kill)” value [11, 21] was 3 (3 represents over 90% kill), the “Damage to plants, post-emergence” value (Lettuce; [22]) was 3 and the “Damage to plants, pre-emergence” value (Lettuce; [22]) was 3. The “Damage to plants, post-emergence” value (Tomato; [22]) was 3, the “Damage to plants, pre-emergence” value (Tomato; [22]) was 3 and the “Damage to plants, post-emergence” value (Wheat [13]; [22]) was 1. For the same compound, the “Damage to plants, pre-emergence” value (Wheat [13]; [22]) was 3, the “Damage to plants, post-emergence” value (Maize; [22]) was 0 and the “Damage to plants, pre-emergence” value (Maize; [22]) was 0. For the same compound, the “Damage to plants, post-emergence” value (Sugar beet; 1 kg/hectare) was 5, the “Damage to plants, pre-emergence” value (Sugar beet; 1 kg/hectare) was 5 and the “Damage to plants, post-emergence” value (Sugar beet; 5 kg/hectare) was 5. The “Damage to plants, pre-emergence” value (Sugar beet; 5 kg/hectare) was 5, the “Damage to plants, post-emergence” value (Kale; 1 kg/hectare) was 5 and the “Damage to plants, pre-emergence” value (Kale; 1 kg/hectare) was 4. For the same compound, the “Damage to plants, post-emergence” value (Kale; 5 kg/hectare) was 4, the “Damage to plants, pre-emergence” value (Kale; 5 kg/hectare) was 5 and the “Damage to plants, post-emergence” value (Carrot; 1 kg/hectare) was 3. For the same compound, the “Damage to plants, pre-emergence” value (Carrot; 1 kg/hectare) was 4, the “Damage to plants, post-emergence” value (Carrot; 5 kg/hectare) was 4 and the “Damage to plants, pre-emergence” value (Carrot; 5 kg/hectare) was 5. For the same compound, the “Damage to plants, pre-emergence” value (Pea; 1 kg/hectare) was 5, the “Damage to plants, post-emergence” value (Pea; 5 kg/hectare) was 0 and the “Damage to plants, pre-emergence” value (Pea; 5 kg/hectare) was 5. The “Damage to plants, post-emergence” value (Onion; 1 kg/hectare) was 3, the “Damage to plants, pre-emergence” value (Onion; 1 kg/hectare) was 5 and the “Damage to plants, post-emergence” value (Onion; 5 kg/hectare) was 0. For the same compound, the “Damage to plants, pre-emergence” value (Onion; 5 kg/hectare) was 5, the “Damage to plants, post-emergence” value (Barley [14]; 1 kg/hectare) was 1 and the “Damage to plants, pre-emergence” value (Barley [14]; 1 kg/hectare) was 4. The “Damage to plants, post-emergence” value (Barley [14]; 5 kg/hectare) was 0, the “Damage to plants, pre-emergence” value (Barley [14]; 5 kg/hectare) was 5 and the “Damage to plants, post-emergence” value (Rice; 1 kg/hectare) was 0. For the same compound, the “Damage to plants, pre-emergence” value (Rice; 1 kg/hectare) was 4, the “Damage to plants, post-emergence” value (Rice; 5 kg/hectare) was 0 and the “Damage to plants, pre-emergence” value (Rice; 5 kg/hectare) was 5. For the same compound, the “Damage to plants, post-emergence” value (Oat; 1 kg/hectare) was 2, the “Damage to plants, pre-emergence” value (Oat; 1 kg/hectare) was 4 and the “Damage to plants, post-emergence” value (Oat; 5 kg/hectare) was 0. For the same compound, the “Damage to plants, pre-emergence” value (Oat; 5 kg/hectare) was 5, the “Activity relative to lindane” value [17] was 6 (6 represents activity 10 times that of the standard) and the “times more toxic than lindane” value [18] was 10 times.
